The values that follow come from US20250171437A1 (Agios Pharmaceuticals,Inc., priority 2022, published 2025).

A value given as a limit tells only on which side of the number the result lay.

This assay addresses T1, human PAH with the R408W mutation (A375 R408W cells) (Homo sapiens, UniProt P00439, R408W).
T1 construct: expressed in transfected cells
T1 sequence (P00439 1-452 R408W): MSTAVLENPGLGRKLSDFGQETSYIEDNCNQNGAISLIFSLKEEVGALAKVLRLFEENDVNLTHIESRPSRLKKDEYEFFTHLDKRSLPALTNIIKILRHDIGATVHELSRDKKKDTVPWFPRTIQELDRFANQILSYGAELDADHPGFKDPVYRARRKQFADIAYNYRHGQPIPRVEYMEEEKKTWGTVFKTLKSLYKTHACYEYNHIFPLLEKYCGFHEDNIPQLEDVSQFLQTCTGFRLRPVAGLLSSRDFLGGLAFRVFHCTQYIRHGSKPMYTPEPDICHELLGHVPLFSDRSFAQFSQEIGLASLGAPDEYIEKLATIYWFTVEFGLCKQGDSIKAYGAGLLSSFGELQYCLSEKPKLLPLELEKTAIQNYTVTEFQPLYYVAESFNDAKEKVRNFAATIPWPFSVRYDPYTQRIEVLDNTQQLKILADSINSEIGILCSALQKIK
Briefly: Cell Based Phenylalanine Flux Assay. The note with it: 24 hrs with compound, then 20 μM sepiapterin and 800 μM 13C9,15N-Phenylalanine for 4 hours, 13C-Tyrosine by LC-MS, average where tested multiple times. The method in brief: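 AC50 is derived from LC-MS of 13C-tyrosine in the media after a 4 h pulse of 800 μM 13C9,15N-phenylalanine plus 20 μM sepiapterin. The A375 R408W PAH cells had received duplicate 10-point, 2-fold compound dilutions (0.5% DMSO) for 24 h beforehand.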

The mark [1] stands for this setting: A375 cells expressing R408W PAH.

Take `CN1CCN(c2ccc3c(C(=O)N4CCc5[nH]cnc5[C@@H]4c4nc5cccc(F)c5o4)cnn3c2)CC1` [Example 364, (R)-(4-(7-fluorobenzo[d]oxazol-2-yl)-6,7-dihydro-1H-imidazo[4,5-c]pyridin-5(4H)-yl)(6-(4-methylpiperazin-1-yl)pyrazolo[1,5-a]pyridin-3-yl)methanone]: the AC50 (usually the midpoint of the concentration-response curve, whichever way the signal moves) (A375 R408W cells) was in the range of 1000 to 5000 nM.
Take `CC(C)(O)c1nc(C(F)F)c(C(=O)N2CCc3[nH]cnc3[C@H]2c2nc3c(F)ccc(F)c3o2)o1` [Example 345, (S)-(4-(4,7-difluorobenzo[d]oxazol-2-yl)-6,7-dihydro-1H-imidazo[4,5-c]pyridin-5(4H)-yl)(4-(difluoromethyl)-2-(2-hydroxypropan-2-yl)oxazol-5-yl)methanone]: the half-maximal activity concentration (AC50) (A375 R408W cells) was no more than 500 nM.
As to `Cn1nc(Cl)cc1C(=O)N1CCc2[nH]cnc2[C@@H]1c1nc2cc(F)ccc2o1` [Example 128, (R)-(3-chloro-1-methyl-1H-pyrazol-5-yl)(4-(5-fluorobenzo[d]oxazol-2-yl)-6,7-dihydro-1H-imidazo[4,5-c]pyridin-5(4H)-yl)methanone], the concentration at half-maximal activity (AC50) (A375 R408W cells) was 1000 to 5000 nM.
For the molecule `Cc1ccc2nc(C3c4nc[nH]c4CCN3C(=O)c3ocnc3C#N)oc2c1` (centres unmarked), under setting [1], the AC50 was 1000 to 5000 nM.
In the case of `O=C(c1ccnn1C(F)F)N1CCc2[nH]cnc2[C@H]1c1nc2c(F)cccc2o1` [Example 201, (S)-(1-(difluoromethyl)-1H-pyrazol-5-yl)(4-(4-fluorobenzo[d]oxazol-2-yl)-6,7-dihydro-1H-imidazo[4,5-c]pyridin-5(4H)-yl)methanone], the AC50 (A375 R408W cells) is 500 to 1000 nM.
With `O=C(c1cnn2cc(N3CCC(O)CC3)ccc12)N1CCc2[nH]cnc2C1c1nc2c(F)cccc2o1` (centres unmarked), the AC50 under setting [1] lay in the range of 1000 to 5000 nM.
Turning to `Cc1ncoc1C(=O)N1CCc2[nH]cnc2[C@@H]1c1nc2c(F)ccc(F)c2o1` [Example 808, (R)-(4-(4,7-difluorobenzo[d]oxazol-2-yl)-6,7-dihydro-1H-imidazo[4,5-c]pyridin-5(4H)-yl)(4-methyloxazol-5-yl)methanone], where the note is “A375 R408W cells”, the AC50 was in the range of 1000 to 5000 nM.
On to `O=C(c1oc(C2CC2)nc1C(F)F)N1CCc2[nH]cnc2[C@H]1c1nc2cc(F)ccc2o1` [Example 53, (S)-(2-cyclopropyl-4-(difluoromethyl)oxazol-5-yl)(4-(5-fluorobenzo[d]oxazol-2-yl)-6,7-dihydro-1H-imidazo[4,5-c]pyridin-5(4H)-yl)methanone], for which, for the setting “A375 R408W cells”, the AC50 is no more than 500 nM.
`O=C(c1ocnc1C(F)(F)F)N1CCc2[nH]cnc2[C@H]1c1nc2cc(Br)ccc2o1` [Example 147, (S)-(4-(5-bromobenzo[d]oxazol-2-yl)-6,7-dihydro-1H-imidazo[4,5-c]pyridin-5(4H)-yl)(4-(trifluoromethyl)oxazol-5-yl)methanone]: the AC50 (A375 R408W cells) is no more than 500 nM.
In the case of `COCc1nnc(C(=O)N2CCc3[nH]cnc3C2c2nc3cc(F)ccc3o2)o1` (centres unmarked) [listing 1 of 2 here], under setting [1], the AC50 lay in the range of 1000 to 5000 nM.
In the case of `O=C(c1cn[nH]c1C(F)F)N1CCc2[nH]cnc2C1c1nc2cc(F)ccc2o1` (centres unmarked), the AC50 under setting [1] is no less than 5000 nM.
Consider `O=C(c1nncn1C1CC1)N1CCc2[nH]cnc2C1c1nc2ccc(F)cc2o1` (centres unmarked), for which, under setting [1], the AC50 fell in the range of 1000 to 5000 nM.
As for `Cc1nc(C(C)(C)O)oc1C(=O)N1CCc2[nH]cnc2[C@H]1c1nc2c(F)cccc2o1` [Example 259, (S)-(4-(4-fluorobenzo[d]oxazol-2-yl)-6,7-dihydro-1H-imidazo[4,5-c]pyridin-5(4H)-yl)(2-(2-hydroxypropan-2-yl)-4-methyloxazol-5-yl)methanone], under “A375 R408W cells”, the AC50 lay in the range of 500 to 1000 nM.
Take `Cc1ccc2oc([C@@H]3c4nc[nH]c4CCN3C(=O)c3nnc(-c4ccn(C)n4)o3)nc2c1` [Example 389, (S)-(5-(1-methyl-1H-pyrazol-3-yl)-1,3,4-oxadiazol-2-yl)(4-(5-methylbenzo[d]oxazol-2-yl)-6,7-dihydro-1H-imidazo[4,5-c]pyridin-5(4H)-yl)methanone]: the AC50 (A375 R408W cells) is no more than 500 nM.
Take `COc1cccc2nc(C3c4nc[nH]c4CCN3C(=O)c3ccnn3-c3ccccn3)oc12` (centres unmarked): under setting [1], the concentration at half-maximal activity (AC50) was in the range of 1000 to 5000 nM.
With `Cc1cccc2nc([C@H]3c4nc[nH]c4CCN3C(=O)c3nnc(-c4ccccn4)o3)oc12` [Example 568, (R)-(4-(7-methylbenzo[d]oxazol-2-yl)-6,7-dihydro-1H-imidazo[4,5-c]pyridin-5(4H)-yl)(5-(pyridin-2-yl)-1,3,4-oxadiazol-2-yl)methanone], the AC50 (A375 R408W cells) fell in the range of 1000 to 5000 nM.
Take `COCc1nnc(C(=O)N2CCc3[nH]cnc3C2c2nc3cc(F)ccc3o2)o1` (centres unmarked) [listing 2 of 2 here]: the AC50 under setting [1] was no less than 5000 nM.
Take `Cc1ccc2nc([C@H]3c4nc[nH]c4CCN3C(=O)c3nnc(-c4cc[nH]n4)o3)oc2c1` [Example 360, (R)-(5-(1H-pyrazol-3-yl)-1,3,4-oxadiazol-2-yl)(4-(6-methylbenzo[d]oxazol-2-yl)-6,7-dihydro-1H-imidazo[4,5-c]pyridin-5(4H)-yl)methanone]: for the setting “A375 R408W cells”, the AC50 is 1000 to 5000 nM.
As for `Cc1ccc(C)c2oc([C@H]3c4nc[nH]c4CCN3C(=O)c3oc(C(C)(C)O)nc3C(F)F)nc12` [Example 660, (R)-(4-(difluoromethyl)-2-(2-hydroxypropan-2-yl)oxazol-5-yl)(4-(4,7-dimethylbenzo[d]oxazol-2-yl)-6,7-dihydro-1H-imidazo[4,5-c]pyridin-5(4H)-yl)methanone], the AC50 (A375 R408W cells) lay in the range of 1000 to 5000 nM.
Same read-out and setting: in the case of `Cn1nc(Br)nc1C(=O)N1CCc2[nH]cnc2[C@H]1c1nc2cccc(F)c2o1` [Example 473, (S)-(3-bromo-1-methyl-1H-1,2,4-triazol-5-yl)(4-(7-fluorobenzo[d]oxazol-2-yl)-6,7-dihydro-1H-imidazo[4,5-c]pyridin-5(4H)-yl)methanone] it was 500 to 1000 nM.
Take `COCCCc1ccc2c(C(=O)N3CCc4[nH]cnc4C3c3nc4cc(F)ccc4o3)cnn2c1` (centres unmarked): the AC50 under setting [1] is no less than 5000 nM.
As to `CC(C)(O)c1nc(C(F)F)c(C(=O)N2CCc3[nH]cnc3[C@H]2c2nc3cccc(Br)c3o2)o1` [Example 460, (S)-(4-(7-bromobenzo[d]oxazol-2-yl)-6,7-dihydro-1H-imidazo[4,5-c]pyridin-5(4H)-yl)(4-(difluoromethyl)-2-(2-hydroxypropan-2-yl)oxazol-5-yl)methanone], under “A375 R408W cells”, the half-maximal activity concentration (AC50) is no more than 500 nM.
Regarding `O=C(c1cnn2cc(Br)c(Cl)cc12)N1CCc2[nH]cnc2[C@H]1c1nc2cc(F)ccc2o1` [Example 165, (S)-(6-bromo-5-chloropyrazolo[1,5-a]pyridin-3-yl)(4-(5-fluorobenzo[d]oxazol-2-yl)-6,7-dihydro-1H-imidazo[4,5-c]pyridin-5(4H)-yl)methanone], the concentration at half-maximal activity (AC50) (A375 R408W cells) was no more than 500 nM.
The same measure, in the same setting: with `CC(C)(O)c1nc(C(F)F)c(C(=O)N2CCc3[nH]cnc3[C@@H]2c2nc3c(F)ccc(F)c3o2)o1` [Example 346, (R)-(4-(4,7-difluorobenzo[d]oxazol-2-yl)-6,7-dihydro-1H-imidazo[4,5-c]pyridin-5(4H)-yl)(4-(difluoromethyl)-2-(2-hydroxypropan-2-yl)oxazol-5-yl)methanone] the figure was 1000 to 5000 nM.
For `O=C(c1cnco1)N1CCc2[nH]cnc2C1c1nc2cc(F)ccc2o1` (centres unmarked), the concentration at half-maximal activity (AC50) under setting [1] is no less than 5000 nM.
For `O=C(c1ccnn1C(F)F)N1CCc2[nH]cnc2[C@H]1c1nc2ccccc2o1` [Example 563, (S)-(4-(benzo[d]oxazol-2-yl)-6,7-dihydro-1H-imidazo[4,5-c]pyridin-5(4H)-yl)(1-(difluoromethyl)-1H-pyrazol-5-yl)methanone], the half-maximal activity concentration (AC50) (A375 R408W cells) is no more than 500 nM.
Take `Cn1nc(C(F)F)nc1C(=O)N1CCc2[nH]cnc2C1c1nc2c(F)cc(F)cc2o1` (centres unmarked): under setting [1], the AC50 lay in the range of 1000 to 5000 nM.
Regarding `O=C(c1ocnc1C(F)F)N1CCc2[nH]cnc2[C@@H]1c1nc2cccc(OC(F)(F)F)c2o1` [Example 531, (R)-(4-(difluoromethyl)oxazol-5-yl)(4-(7-(trifluoromethoxy)benzo[d]oxazol-2-yl)-6,7-dihydro-1H-imidazo[4,5-c]pyridin-5(4H)-yl)methanone], where the note is “A375 R408W cells”, the AC50 is no more than 500 nM.
On the same count and under the same terms, with `O=C(c1oc(-c2ccncn2)nc1C(F)F)N1CCc2[nH]cnc2[C@H]1c1nc2cccc(F)c2o1` [Example 773, (S)-(4-(difluoromethyl)-2-(pyrimidin-4-yl)oxazol-5-yl)(4-(7-fluorobenzo[d]oxazol-2-yl)-6,7-dihydro-1H-imidazo[4,5-c]pyridin-5(4H)-yl)methanone] the figure was no more than 500 nM.
Turning to `COc1cccc2nc([C@H]3c4nc[nH]c4CCN3C(=O)c3ccnn3C)oc12` [Example 750, (R)-(4-(7-methoxybenzo[d]oxazol-2-yl)-6,7-dihydro-1H-imidazo[4,5-c]pyridin-5(4H)-yl)(1-methyl-1H-pyrazol-5-yl)methanone], under “A375 R408W cells”, the AC50 lay within 1000 to 5000 nM.
The same measure, in the same setting: in the case of `O=C(c1oc(-c2cccnc2)nc1C(F)F)N1CCc2[nH]cnc2[C@H]1c1nc2cc(F)ccc2o1` [Example 420, (S)-(4-(difluoromethyl)-2-(pyridin-3-yl)oxazol-5-yl)(4-(5-fluorobenzo[d]oxazol-2-yl)-6,7-dihydro-1H-imidazo[4,5-c]pyridin-5(4H)-yl)methanone] it was no more than 500 nM.
Same read-out and setting: with `O=C(c1nnc(-c2cnn(C(F)F)c2)o1)N1CCc2[nH]cnc2[C@H]1c1nc2cccc(F)c2o1` [Example 875, (S)-(5-(1-(difluoromethyl)-1H-pyrazol-4-yl)-1,3,4-oxadiazol-2-yl)(4-(7-fluorobenzo[d]oxazol-2-yl)-6,7-dihydro-1H-imidazo[4,5-c]pyridin-5(4H)-yl)methanone] the figure was no more than 500 nM.
